Experimental data taken from patent publication US12435316B2, “Three dimensional human brain tumor models” (priority 2018, dated 2025).

Tested on: 3D patient-derived meningioma models (pediatric patient's meningioma tissue)
Assay: Drug treatment of 3D patient-derived meningioma models, live cell staining (calcein AM) and confocal imaging
Format: cell-based, human
Conditions: one month-old 3D pediatric meningioma models; drug 0.05 to 0.8 mM for 48 hours; calcein AM live stain; compared to etoposide, carmustine, irinotecan hydrochloride, temozolomide
Protocol: FIGS. 7A-7B show drug treatment of 3D patient-derived meningioma models. A pediatric patient's meningioma tissue was used to generate replicates of 3D tumor models. One month-old models were treated with chemotherapeutic drugs, etoposide (VP16), carmustine (BCNU), lomustine (CCNU), irinotecan hydrochloride (CPT11) and temozolomide (TMZ) of 0.05 to 0.8 mM for 48 hours. The models were stained with calcein AM (2 uM) for live cells and confocal imaged ([…] section, 35 sections). (FIG. 7A) Maximum projection of 3D image stacks of drug-treated models. Number indicates drug concentration in mM. Ctrl, control. Scale bar, […]. (FIG. 7B) Quantification of live cell counts in relation to drug doses.
FIGS. 7A-7B show an example of drug study using patient-derived tumor models. This example used a pediatric meningioma model to test commonly used chemotherapeutic drugs (etoposide, carmustine, lomustine, irinotecan hydrochloride and temozolomide). […] Additional studies will compare the in vitro findings with the patient's clinical responses to further determine the most optimal drug regimen.
Live/Dead Assay was used to image live cells in cultures, according to the manufacturer's protocol (ThermoFisher Scientific). […] The stained cultures were imaged with a fluorescence microscope at Ex/Em of 494/517 nm and 528/617 nm for Live and Dead stains, respectively. […]

SMILES: O=NN(CCCl)C(=O)NC1CCCCC1 [lomustine]
- tumor cell-killing effects (live cell counts in relation to drug doses): strongest tumor cell-killing effects
